From the supplement of paper PMC13380429

Assays:
[1] = system: A549-ACE2 infected with SARS-CoV-2; assay: cell count relative to DMSO; higher = less toxic; settings: 24 h
[2] = system: Caco-2; assay: cell viability relative to DMSO; higher = less toxic; settings: 72 h
[3] = system: Calu-3; assay: as above; settings: 72 h
[4] = system: HepG2; assay: as above; settings: 72 h
[5] = system: U2OS; assay: as above; settings: 72 h
[6] = system: Vero E6; assay: as above; settings: 72 h
[7] = system: A549-ACE2 infected with SARS-CoV-2; assay: SARS-CoV-2 infection rate relative to DMSO; higher = more infection; settings: 24 h
[8] = system: A549-ACE2; assay: phospholipidosis EC50; higher = less potent phospholipidosis inducer
[9] = system: A549-ACE2; assay: drug-induced phospholipidosis relative to tamoxifen; higher = more phospholipidosis
[10] = system: A549-ACE2 infected with SARS-CoV-2; assay: morphology score (similarity to uninfected cells); higher = more like uninfected cells; settings: 24 h
[11] = system: Caco-2; assay: relative viability EC50 (midpoint between 100% and the lowest measured viability); higher = less toxic; settings: 72 h
[12] = system: Calu-3; assay: as above; settings: 72 h
[13] = system: U2OS; assay: as above; settings: 72 h
[14] = system: Vero E6; assay: as above; settings: 72 h
[15] = system: Caco-2; assay: drug sensitivity score (DSS) for viability; higher = more toxic; extreme values may be limits of the assay; settings: 72 h
[16] = system: Calu-3; assay: as above; settings: 72 h
[17] = system: HepG2; assay: as above; settings: 72 h
[18] = system: U2OS; assay: as above; settings: 72 h
[19] = system: Vero E6; assay: as above; settings: 72 h
[20] = system: HepG2; assay: relative viability EC50 (midpoint between 100% and the lowest measured viability); higher = less toxic; settings: 72 h

CN(C)c1ccccc1CN1CCCN(Cc2ccccc2N(C)C)C1c1ccncc1 [GANT-61]
Settings | SARS-CoV-2 infection rate [%] | cell count [%] | cell viability [%] | morphology score | phospholipidosis EC50 [µM]
[1], 0.3 µM | – | 95 | – | – | –
[1], 3 µM | – | 110 | – | – | –
[1], 10 µM | – | 117 | – | – | –
[1], 30 µM | – | 109 | – | – | –
[2], 1 nM | – | – | 94.5 | – | –
[2], 10 nM | – | – | 99.9 | – | –
[2], 100 nM | – | – | 92.7 | – | –
[2], 1000 nM | – | – | 99 | – | –
[2], 10000 nM | – | – | 95.9 | – | –
[3], 1 nM | – | – | 111 | – | –
[3], 10 nM | – | – | 109 | – | –
[3], 100 nM | – | – | 110 | – | –
[3], 1000 nM | – | – | 88.2 | – | –
[3], 10000 nM | – | – | 47.1 | – | –
[4], 1 nM | – | – | 100 | – | –
[4], 10 nM | – | – | 105 | – | –
[4], 100 nM | – | – | 97.5 | – | –
[4], 1000 nM | – | – | 95.3 | – | –
[4], 10000 nM | – | – | 71.1 | – | –
[5], 1 nM | – | – | 97.5 | – | –
[5], 10 nM | – | – | 94 | – | –
[5], 100 nM | – | – | 95.8 | – | –
[5], 1000 nM | – | – | 100 | – | –
[5], 10000 nM | – | – | 93.5 | – | –
[6], 1 nM | – | – | 97.7 | – | –
[6], 10 nM | – | – | 101 | – | –
[6], 100 nM | – | – | 96 | – | –
[6], 1000 nM | – | – | 95.6 | – | –
[6], 10000 nM | – | – | 95 | – | –
[7], 0.3 µM | 99 | – | – | – | –
[7], 3 µM | 64 | – | – | – | –
[7], 10 µM | 33 | – | – | – | –
[7], 30 µM | 41 | – | – | – | –
[8], 24 h | – | – | – | – | 3.39
[8], 48 h | – | – | – | – | 4.52
[8], 72 h | – | – | – | – | 6.2
[10], 0.3 µM | – | – | – | -0.11 | –
[10], 3 µM | – | – | – | 0.59 | –
[10], 10 µM | – | – | – | 0.68 | –
[10], 30 µM | – | – | – | 0.26 | –

drug-induced phospholipidosis [%], [9]
Settings | 0.3 µM | 0.833333 µM | 3.33333 µM | 6.66667 µM | 10 µM | 30 µM
24 h | 3.13 | 5.25 | 60.1 | 90.1 | 94.9 | 116
48 h | 6.4 | 5.75 | 51.9 | 94.9 | 118 | 135
72 h | 6.86 | 6.64 | 47 | 96.1 | 125 | –

Settings | drug sensitivity score | relative viability EC50 [µM]
[11] | – | > 10
[12] | – | 1.65
[13] | – | > 10
[14] | – | > 10
[15] | 0 | –
[16] | 4.7 | –
[17] | 2 | –
[18] | 0 | –
[19] | 0 | –

Clc1ccc(N/N=C(\c2ccccc2)c2ccccn2)nc1 [JIB04]
Settings | SARS-CoV-2 infection rate, [7] [%] | cell count, [1] [%] | cell viability, [2] [%] | cell viability, [3] [%] | cell viability, [4] [%] | cell viability, [5] [%] | cell viability, [6] [%] | morphology score, [10]
1 nM | – | – | 89.4 | 101 | 92.7 | 102 | 91.7 | –
10 nM | – | – | 94.1 | 108 | 87.8 | 97.9 | 102 | –
100 nM | – | – | 33.7 | 102 | 19.8 | 95.6 | 89.4 | –
0.3 µM | 104 | 99 | – | – | – | – | – | -0.14
1000 nM | – | – | 11.2 | 14.7 | 6.2 | 34.3 | 53.7 | –
3 µM | 82 | 96 | – | – | – | – | – | 0.28
10 µM | 36 | 88 | – | – | – | – | – | 0.37
10000 nM | – | – | 34.7 | 18.8 | 21.6 | 6.9 | 6.4 | –
30 µM | 50 | 54 | – | – | – | – | – | 0.36

[9]
Settings | drug-induced phospholipidosis [%]
0.3 µM, 24 h | 4.18
0.3 µM, 48 h | 6.34
0.3 µM, 72 h | 8.31
0.833333 µM, 24 h | -0.88
3.33333 µM, 24 h | -2.31
6.66667 µM, 24 h | 22.5
10 µM, 24 h | 26.1
30 µM, 24 h | 2.4

Settings | drug sensitivity score | relative viability EC50 [µM]
[11] | – | 0.0502
[12] | – | 0.327
[13] | – | 0.595
[14] | – | 0.943
[15] | 24.6 | –
[16] | 15.3 | –
[17] | 28.1 | –
[18] | 13.2 | –
[19] | 10.7 | –
[20] | – | 0.0327

CC[C@@H](C)CNCC(=O)N1CCc2sccc2[C@@H]1COc1cccc(C)c1 [RU-SKI-43]
Settings | SARS-CoV-2 infection rate [%] | cell count [%] | cell viability [%] | morphology score | phospholipidosis EC50 [µM]
[1], 0.3 µM | – | 98 | – | – | –
[1], 3 µM | – | 116 | – | – | –
[1], 10 µM | – | 119 | – | – | –
[1], 30 µM | – | 100 | – | – | –
[2], 1 nM | – | – | 98.8 | – | –
[2], 10 nM | – | – | 103 | – | –
[2], 100 nM | – | – | 90.4 | – | –
[2], 1000 nM | – | – | 107 | – | –
[2], 10000 nM | – | – | 83.2 | – | –
[3], 1 nM | – | – | 94.9 | – | –
[3], 10 nM | – | – | 103 | – | –
[3], 100 nM | – | – | 102 | – | –
[3], 1000 nM | – | – | 109 | – | –
[3], 10000 nM | – | – | 80.8 | – | –
[4], 1 nM | – | – | 104 | – | –
[4], 10 nM | – | – | 94.5 | – | –
[4], 100 nM | – | – | 99.6 | – | –
[4], 1000 nM | – | – | 108 | – | –
[4], 10000 nM | – | – | 86.8 | – | –
[5], 1 nM | – | – | 95.5 | – | –
[5], 10 nM | – | – | 98.1 | – | –
[5], 100 nM | – | – | 94.4 | – | –
[5], 1000 nM | – | – | 99.5 | – | –
[5], 10000 nM | – | – | 93 | – | –
[6], 1 nM | – | – | 93.7 | – | –
[6], 10 nM | – | – | 92.9 | – | –
[6], 100 nM | – | – | 90.4 | – | –
[6], 1000 nM | – | – | 98.3 | – | –
[6], 10000 nM | – | – | 92.8 | – | –
[7], 0.3 µM | 102 | – | – | – | –
[7], 3 µM | 60 | – | – | – | –
[7], 10 µM | 24 | – | – | – | –
[7], 30 µM | 24 | – | – | – | –
[8], 24 h | – | – | – | – | 3.7
[8], 48 h | – | – | – | – | 4.58
[8], 72 h | – | – | – | – | 6.66
[10], 0.3 µM | – | – | – | -0.05 | –
[10], 3 µM | – | – | – | 0.65 | –
[10], 10 µM | – | – | – | 0.83 | –
[10], 30 µM | – | – | – | 0.3 | –

drug-induced phospholipidosis [%], [9]
Settings | 0.3 µM | 0.833333 µM | 3.33333 µM | 6.66667 µM | 10 µM | 30 µM
24 h | 2.31 | 9.84 | 41 | 92 | 102 | 95.8
48 h | 1.76 | 10.7 | 27.3 | 78.5 | 100 | 95
72 h | 3.03 | 9.34 | 27.4 | 73.8 | 102 | –

Settings | drug sensitivity score | relative viability EC50 [µM]
[11] | – | > 10
[12] | – | > 10
[13] | – | > 10
[14] | – | > 10
[15] | 0.2 | –
[16] | 0.3 | –
[17] | 0 | –
[18] | 0 | –
[19] | 0 | –
[20] | – | > 10
